Measurements as given in paper PMC12073438, “Stereoselectivity of In Vivo Processes and Bioactivity of Farrerol Enantiomers” (Molecules, 2025).
“And” between values parts separate entries of the source, which are not always exact repeats. Equal values may be shown once. Read-outs that look alike come from different tables or passages of the source. Marks after values point to notes of the source that are not given here.

Experiments:
[1] = Stereoselective pharmacokinetics in rat plasma; format: in vivo, Sprague–Dawley rats; settings: for MRT last: read-out: MRT(0–t); for chiral transformation between enantiomers: single enantiomers orally administered (75 mg/kg)
Procedure: The pharmacokinetic data were optimally characterized by a noncompartmental model. The mean concentration-time profiles for the farrerol enantiomers are illustrated in Figure 3, along with the corresponding key pharmacokinetic parameters presented in Table 2.
Twenty-five rats were randomly divided into five experimental groups (A, B, C, D, and E). Groups A and B received farrerol racemate via intragastric administration at doses of 150 mg/kg and 75 mg/kg, respectively. Group C was administered 4 mg/kg of farrerol racemate through caudal intravenous administration. […] Blood samples (300 μL) were obtained from the orbital venous plexus into heparinized tubes at various time points: 0.25, 0.5, 1, 2, 3, 5, 7, 9, 12, and 24 h following gavage administration, and at 0.083, 0.167, 0.25, 0.5, 1, 1.5, 2, 2.5, 3, and 5 h post-intravenous administration. Plasma was separated by centrifugation (3000 rpm, 10 min) and stored at −80 °C until analysis.
A total of 150 μL of plasma and 50 μL of the internal standard solution were added to a 1.5 mL EP tube and mixed using a vortex for 30 s. Subsequently, 500 μL of ether was introduced, and the mixture was vortexed for 5 min. Following centrifugation at 10,000 rpm for 10 min, the resulting organic layer was carefully transferred to a separate tube. Each sample underwent two extraction processes. The resulting ether layer was then evaporated to dryness using a continuous air stream at room temperature. A 250 μL aliquot of methanol was employed to re-dissolve the residue, utilizing vortex mixing for 2 min. Following centrifugation at 14,000 rpm for 10 min, the supernatant was subsequently injected into the HPLC-MS system for analysis.
(§1) Stereoselective chromatographic analysis of farrerol enantiomers was conducted utilizing an ACQUITY UPLC I-Class UPLC system (Waters, Milford, MA, USA), which is equipped with a quaternary pump and an autosampler. The chiral separation was carried out employing a Chiralpak OJ-RH column (250 mm × 4.6 mm, 5 μm), which was obtained from Daicel Chemical Industries (Shanghai, China). The mobile phase consisted of ACN-H2O (60:40, v/v), and the constant flow rate was 0.5 mL/min. The column temperature was set at 25 °C, and the injection volume was 10 μL.
(§2) Mass detection was conducted using a triple quadrupole mass spectrometer (Waters Co., USA) equipped with an electrospray ionization (ESI) source. The detection of enantiomers and internal standards (IS) was carried out in multiple reaction monitoring (MRM) mode utilizing negative ionization. The m/z 299→179 for enantiomers and m/z 267→252 for IS were selected as detecting ions for quantitation. The collision energies (CE) were established at 22 eV and 20 eV, respectively. The primary mass spectrometry (MS) parameters were configured as follows: capillary voltage was set to 3.5 kV, ion source temperature was maintained at 150 °C, desolvation gas flow rate was 800 L/h, and the cone voltage (CV) was adjusted to 1.3 V.
(§3) Pharmacokinetic analysis was conducted utilizing the Drug and Statistics (DAS) 2.0 software provided by the Chinese Pharmacological Society. To assess the differences in pharmacokinetic parameters, the IC50 values of the evaluated CYP enzymes and the permeability coefficients between the two farrerol enantiomers, paired sample t-tests and independent sample t-tests were performed. Statistical significance was defined as * p < 0.05 and ** p < 0.01. All results are presented as mean values ± standard deviation (SD).

[2] = Stereoselective pharmacokinetics in rat kidney tissue; format: in vivo, Sprague–Dawley rats; settings: rat kidney, oral 40 mg/kg farrerol racemate; for Cmax / AUC(0–t) / AUC(0–∞): 40 mg/kg
Procedure: Forty-two rats were divided randomly into seven groups (6 rats per time point at 0.5, 1, 2, 4, 8, 12, and 24 h) and were orally administered farrerol racemate at a dose of 40 mg/kg. Rats from each group were euthanized, and kidney and liver tissues were subsequently obtained. After washing three times using 0.9% sodium chloride solution, the attached blood and fat tissues were removed. Afterward, 0.5 g of the precisely weighed liver and kidney tissues were added to 1 mL 0.9% sodium chloride solution and homogenized in an ice bath. Subsequently, 150 µL of supernatant was transferred into a 2.0 mL EP tube for pre-treatment, in the same way as the pretreatment of plasma samples (see Section 3.4.1).
as §1, §2, §3

[3] = Sprague-Dawley, rat, plasma, iv, 4 mg/kg, i.v. of farrerol racemate (4 mg/kg)
[4] = Sprague-Dawley, rat, plasma, po, 150 mg/kg, i.g. of farrerol racemate (150 mg/kg)
[5] = i.g. of farrerol racemate (75 mg/kg)
[6] = i.g. of farrerol racemate (150 mg/kg)
[7] = i.g. of the single enantiomer (75 mg/kg)
[8] = i.v. of farrerol racemate (4 mg/kg)
[9] = oral 75 mg/kg farrerol racemate
[10] = Sprague-Dawley, rat, plasma, po, 75 mg/kg, i.g. of the single enantiomer (75 mg/kg)

Cc1c(O)c(C)c2c(c1O)C(=O)CC(c1ccc(O)cc1)O2 (single isomer, unassigned; (+)) [(+)-farrerol, 2,3-dihydro-5,7-dihydroxy-2-(4-hydroxyphenyl)-6,8-dimethyl-4-benzopyrone]
AUC(0-inf) [1, 3]: 1550 ± 56 ng·h/mL | AUC(0-t) [1, 3]: 1460 ± 54.5 ng·h/mL | half-life [1, 3]: 642 ± 6 min | Cmax ([1]; Sprague-Dawley, rat, plasma, iv, 4 mg/kg, i.v. of farrerol racemate (4 mg/kg), read-out: Cmax): 2660 ng/mL | MRT last [1, 3]: 2.7 ± 0.1 h | Tmax ([1]; Sprague-Dawley, rat, plasma, iv, 4 mg/kg, i.v. of farrerol racemate (4 mg/kg), read-out: Tmax): 0.08 h | MRT last ([1]; Sprague-Dawley, rat, plasma, po, 75 mg/kg, i.g. of farrerol racemate (75 mg/kg)): 6.27 ± 0.27 h | bioavailability [1, 4]: 6.4 ± 0.04% | Cmax ([1]; Sprague-Dawley, rat, plasma, po, 150 mg/kg, i.g. of farrerol racemate (150 mg/kg), read-out: Cmax): 457 ± 24.6 ng/mL | MRT last [1, 4]: 5.98 ± 0.14 h | Tmax ([1]; Sprague-Dawley, rat, plasma, po, 150 mg/kg, i.g. of farrerol racemate (150 mg/kg), read-out: Tmax): 1.5 h | AUC(0–t) [1, 5]: 2399 ng·h/mL and 2399.1 ± 102.3 ng·h/mL | AUC(0–∞) [1, 5]: 6870.3 ± 511.4 ng·h/mL | Cmax [1, 5]: 287.0 ± 24.6 ng/mL | F [1, 5]: 8.7 ± 0.7% | Tmax [1, 5]: 3.00 h | t1/2 [1, 5]: 19.2 ± 2.0 ** h | AUC(0–t) [1, 6]: 3522.6 ± 146.0 ng·h/mL | AUC(0–∞) [1, 6]: 13,885.5 ± 2550.4 ng/mL*h | t1/2 [1, 6]: 22.9 ± 2.6 h | AUC(0–∞) [1, 7]: 22,122.4 ± 1894.1 ng/mL*h | Cmax [1, 7]: 1177.4 ± 84.5 ng/mL | MRT(0–t) [1, 7]: 9.12 ± 0.18 h | Tmax [1, 7]: 5.00 h | t1/2 [1, 7]: 10.4 ± 0.4 h | Cmax [1, 8]: 2662.7 ± 226.4 ng/mL | AUC0–t of (+)-farrerol relative to (−)-farrerol [1, 9]: ~5.6 fold | Cmax of (+)-farrerol relative to (−)-farrerol [1, 9]: about 3.5 fold | AUC0–t of (+)-farrerol relative to (−)-farrerol ([1]; oral 75 mg/kg of single enantiomers): ~2.61 fold | chiral transformation between enantiomers [1]: no chiral transformation | Cmax ([2]; Sprague-Dawley, rat, kidney, po, read-out: Cmax): 3020 ± 350 ng/g | Tmax ([2]; Sprague-Dawley, read-out: Tmax): 1 h | AUC(0–t) [2]: 23.93 ± 2.11 µg·h/g | AUC(0–∞) [2]: 25.70 ± 2.09 µg·h/g

Cc1c(O)c(C)c2c(c1O)C(=O)CC(c1ccc(O)cc1)O2 (single isomer, unassigned; (-)) [(−)-farrerol, 2,3-dihydro-5,7-dihydroxy-2-(4-hydroxyphenyl)-6,8-dimethyl-4-benzopyrone]
half-life [1, 10]: 720 ± 30 min | MRT last [1, 10]: 10.8 ± 0.47 h | AUC(0–t) [1, 5]: 428.3 ± 88.2 ** ng/mL*h | AUC(0–∞) [1, 5]: 1341.8 ± 337.6 ** ng/mL*h | Cmax [1, 5]: 80.5 ± 7.5 ** ng/mL | F [1, 5]: 2.3 ± 0.05 ** % | MRT(0–t) [1, 5]: 5.61 ± 0.56 h | Tmax [1, 5]: 1.00 * h | t1/2 [1, 5]: 8.5 ± 1.5 ** h | AUC(0–t) [1, 6]: 1622.6 ± 84.3 ** ng/mL*h | AUC(0–∞) [1, 6]: 1837.8 ± 226.9 ** ng/mL*h | Cmax [1, 6]: 390.0 ± 35.3 * ng/mL | F [1, 6]: 4.3 ± 0.7 * % | MRT(0–t) [1, 6]: 4.65 ± 0.06 h | Tmax [1, 6]: 1.50 h | t1/2 [1, 6]: 3.5 ± 0.4 ** h | AUC(0–t) [1, 7]: 6746.8 ± 298.7 ng·h/mL | AUC(0–∞) [1, 7]: 8572.4 ± 221.0 ng·h/mL | Cmax [1, 7]: 520.9 ± 91.7 ng/mL | Tmax [1, 7]: 2.00 ^# h | AUC(0–t) [1, 8]: 1012.4 ± 88.1 ** ng/mL*h | AUC(0–∞) [1, 8]: 1195.7 ± 49.7 ** ng/mL*h | Cmax [1, 8]: 1695.0 ± 224.6 ** ng/mL | MRT(0–t) [1, 8]: 3.48 ± 0.07 * h | Tmax [1, 8]: 0.08 h | t1/2 [1, 8]: 19.0 ± 3.7 * h | chiral transformation between enantiomers [1]: no chiral transformation | AUC0–24 of (−)-farrerol relative to (+)-farrerol [2]: 1.20 times | Tmax [2]: 1.00 h | AUC(0–t) [2]: 28.89 ± 2.53 * µg/g*h | AUC(0–∞) [2]: 30.31 ± 2.47 * µg/g*h | Cmax [2]: 4.18 ± 0.48 * µg/g
